Data from PubChem BioAssay AID328 (DTP/NCI, 2004).
Values joined by “and” are separate entries in the source; they are usually repeats but may differ in a detail not shown here. Identical values can stand only once. Inconclusive results and toxic doses are left out. The calls were made as follows: active = survival T/C of 150% or more; inactive = T/C below 125% in these data.

System: BDF1 mice, P388 leukemia ip, median survival T/C
Experiment: NCI In Vivo Anticancer Drug Screen. Data for tumor model P388 Leukemia (intraperitoneal) in B6D2F1 (BDF1) mice
Conditions: endpoint: median survival time, higher = longer survival
Outline: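 Steps: implant the tumour, treat one group with compound and another with vehicle, record survival, then divide treated by control.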

[1] = dose: 50.0 mg/kg/injection, schedule: Q01DX009 (ip), vehicle: saline
[2] = dose: 100.0 mg/kg/injection, schedule: Q04DX003 (ip), vehicle: saline
[3] = dose: 200.0 mg/kg/injection, schedule: Q04DX003 (ip), vehicle: saline
[4] = dose: 25.0 mg/kg/injection, schedule: Q04DX003 (ip), vehicle: Klucel (hydroxypropylcellulose) (HPC)
[5] = dose: 100.0 mg/kg/injection, schedule: Q01DX009 (ip), vehicle: saline with Tween-80
[6] = dose: 200.0 mg/kg/injection, schedule: Q01DX009 (ip), vehicle: saline with Tween-80
[7] = dose: 400.0 mg/kg/injection, schedule: Q01DX009 (ip), vehicle: saline with Tween-80
[8] = dose: 100.0 mg/kg/injection, schedule: Q01DX001 (ip), vehicle: saline with Tween-80
[9] = dose: 200.0 mg/kg/injection, schedule: Q01DX001 (ip), vehicle: saline with Tween-80
[10] = dose: 50.0 mg/kg/injection, schedule: Q01DX009 (ip), vehicle: saline with Tween-80
[11] = dose: 100.0 mg/kg/injection, schedule: Q04DX003 (ip), vehicle: saline with Tween-80
[12] = dose: 200.0 mg/kg/injection, schedule: Q04DX003 (ip), vehicle: saline with Tween-80
[13] = dose: 25.0 mg/kg/injection, schedule: Q01DX009 (ip), vehicle: saline with Tween-80
[14] = dose: 100.0 mg/kg/injection, schedule: Q04DX003 (ip), vehicle: Klucel (hydroxypropylcellulose) (HPC)

Measured: T/C

O=P(N1CC1)(N1CC1)N1CCc2ccccc21
inactive: dose: 9.0 mg/kg/injection, schedule: Q01DX009 (ip), vehicle: saline 91 % of control | dose: 13.0 mg/kg/injection, schedule: Q01DX009 (ip), vehicle: saline 104 % of control | dose: 20.0 mg/kg/injection, schedule: Q01DX009 (ip), vehicle: saline 104 % of control | dose: 30.0 mg/kg/injection, schedule: Q04DX003 (ip), vehicle: saline 114 % of control | dose: 44.0 mg/kg/injection, schedule: Q04DX003 (ip), vehicle: saline 117 % of control and 119 % of control | [3] 96 % of control
active: dose: 33.0 mg/kg/injection, schedule: Q01DX009 (ip), vehicle: saline 157 % of control | [1] 166 % of control and 173 % of control | dose: 75.0 mg/kg/injection, schedule: Q01DX009 (ip), vehicle: saline 176 % of control | [2] 170 % of control and 176 % of control | dose: 150.0 mg/kg/injection, schedule: Q04DX003 (ip), vehicle: saline 255 % of control and 195 % of control

O=[N+]([O-])c1cccc(/C=C/c2ccccc2)c1
inactive: dose: 100.0 mg/kg/injection, schedule: Q01DX001 (ip), vehicle: Klucel (hydroxypropylcellulose) (HPC) 100 % of control | dose: 100.0 mg/kg/injection, schedule: Q01DX009 (ip), vehicle: Klucel (hydroxypropylcellulose) (HPC) 95 % of control | dose: 200.0 mg/kg/injection, schedule: Q01DX001 (ip), vehicle: Klucel (hydroxypropylcellulose) (HPC) 95 % of control | dose: 200.0 mg/kg/injection, schedule: Q01DX009 (ip), vehicle: Klucel (hydroxypropylcellulose) (HPC) 95 % of control | dose: 400.0 mg/kg/injection, schedule: Q01DX001 (ip), vehicle: Klucel (hydroxypropylcellulose) (HPC) 90 % of control | dose: 400.0 mg/kg/injection, schedule: Q01DX009 (ip), vehicle: Klucel (hydroxypropylcellulose) (HPC) 90 % of control

Clc1ccc(C2c3ccccc3C[n+]3ccccc32)cc1 (configuration not stated)
inactive: dose: 8.75 mg/kg/injection, schedule: Q01DX009 (ip), vehicle: Klucel (hydroxypropylcellulose) (HPC) 113 % of control | dose: 12.5 mg/kg/injection, schedule: Q04DX003 (ip), vehicle: Klucel (hydroxypropylcellulose) (HPC) 95 % of control | dose: 17.5 mg/kg/injection, schedule: Q01DX009 (ip), vehicle: Klucel (hydroxypropylcellulose) (HPC) 109 % of control | [4] 91 % of control

O=C1c2ccccc2C(=O)c2c(O)ccc(O)c21
inactive: [5] 104 % of control | [6] 109 % of control | [7] 109 % of control

CC1CCC2(C(=O)O)CCC3(C)C(=CCC4C5(C)CC(O)C(O)C(C)(C(=O)O)C5CCC43C)C2C1(C)O (configuration not stated)
inactive: [8] 104 % of control | [9] 100 % of control

C#CC(C)OCC(O)CCl (configuration not stated)
inactive: dose: 25.0 mg/kg/injection, schedule: Q01DX009 (ip), vehicle: saline 100 % of control | [1] 118 % of control | dose: 100.0 mg/kg/injection, schedule: Q01DX009 (ip), vehicle: saline 109 % of control | [2] 108 % of control | [3] 104 % of control | dose: 400.0 mg/kg/injection, schedule: Q04DX003 (ip), vehicle: saline 108 % of control

O=[N+]([O-])c1cc[n+]([O-])c(Br)c1
inactive: [10] 90 % of control | [11] 100 % of control | [6] 87 % of control | [12] 90 % of control

CC(C)=NN1C(=O)c2ccccc2C1=O
inactive: [13] 101 % of control | [10] 101 % of control | [5] 100 % of control

OC1c2cc(Cl)ccc2-c2c(Cl)cc(Cl)cc21 (configuration not stated)
inactive: [10] 104 % of control | [5] 100 % of control | [11] 91 % of control | [6] 108 % of control | [12] 100 % of control

CN1C(=O)C(=O)c2ccccc21
inactive: [10] 94 % of control | [5] 97 % of control | [6] 93 % of control

OCCN1CCN(CC/C=C2\c3ccccc3COc3ccc(Cl)cc32)CC1
inactive: dose: 6.25 mg/kg/injection, schedule: Q04DX003 (ip), vehicle: saline 107 % of control | dose: 25.0 mg/kg/injection, schedule: Q04DX003 (ip), vehicle: saline 109 % of control

Clc1c(CI)ccc(CI)c1Cl
inactive: dose: 11.0 mg/kg/injection, schedule: Q04DX003 (ip), vehicle: Klucel (hydroxypropylcellulose) (HPC) 100 % of control | dose: 12.5 mg/kg/injection, schedule: Q01DX009 (ip), vehicle: saline sonified 113 % of control | dose: 16.5 mg/kg/injection, schedule: Q01DX009 (ip), vehicle: saline with Tween-80 90 % of control | dose: 16.5 mg/kg/injection, schedule: Q04DX003 (ip), vehicle: Klucel (hydroxypropylcellulose) (HPC) 100 % of control | dose: 16.5 mg/kg/injection, schedule: Q04DX003 (ip), vehicle: saline sonified 122 % of control | [13] 90 % of control | [4] 109 % of control | dose: 37.5 mg/kg/injection, schedule: Q04DX003 (ip), vehicle: Klucel (hydroxypropylcellulose) (HPC) 109 % of control | dose: 50.0 mg/kg/injection, schedule: Q01DX009 (ip), vehicle: saline sonified 118 % of control | dose: 50.0 mg/kg/injection, schedule: Q04DX003 (ip), vehicle: Klucel (hydroxypropylcellulose) (HPC) 110 % of control | [14] 120 % of control

O=C1C(C2OC2c2ccccc2)CCCC1C1OC1c1ccccc1 (configuration not stated)
inactive: dose: 100.0 mg/kg/injection, schedule: Q04DX003 (ip), vehicle: saline sonified 100 % of control | [6] 91 % of control | dose: 200.0 mg/kg/injection, schedule: Q04DX003 (ip), vehicle: saline sonified 95 % of control | [7] 87 % of control | dose: 400.0 mg/kg/injection, schedule: Q04DX003 (ip), vehicle: saline sonified 95 % of control

CCCCCCSc1ncnc2nc[nH]c12
inactive: [5] 109 % of control | [11] 100 % of control | [6] 100 % of control | [12] 100 % of control | dose: 400.0 mg/kg/injection, schedule: Q04DX003 (ip), vehicle: saline with Tween-80 95 % of control

CC1OC(Oc2c(-c3cc(O)c(O)c(O)c3)oc3cc(O)cc(O)c3c2=O)C(O)C(O)C1O (configuration not stated)
inactive: [10] 119 % of control | [5] 100 % of control

CCCCCCCCCCCCCCCCCCOc1cccc(C(F)(F)F)c1
inactive: dose: 50.0 mg/kg/injection, schedule: Q01DX001 (ip), vehicle: saline with Tween-80 105 % of control | [8] 100 % of control | [9] 90 % of control

C=C(C)C1CC2(C)C(C)CC(O)CC2C(OC(=O)C=C(C)C)C1O (configuration not stated)
inactive: dose: 0.75 mg/kg/injection, schedule: Q01DX009 (ip), vehicle: saline 94 % of control | dose: 1.5 mg/kg/injection, schedule: Q01DX009 (ip), vehicle: saline 94 % of control | dose: 3.0 mg/kg/injection, schedule: Q01DX009 (ip), vehicle: saline 103 % of control | dose: 6.0 mg/kg/injection, schedule: Q01DX009 (ip), vehicle: saline 89 % of control

COc1cc(C(=O)O)c2c(c1C)OC(=O)c1c(C)cc(O)c(C=O)c1O2
inactive: dose: 2.0 mg/kg/injection, schedule: Q01DX010 (ip), vehicle: saline 95 % of control | dose: 4.0 mg/kg/injection, schedule: Q01DX009 (ip), vehicle: Klucel (hydroxypropylcellulose) (HPC) 109 % of control | dose: 4.0 mg/kg/injection, schedule: Q01DX010 (ip), vehicle: saline 90 % of control and 122 % of control and 123 % of control | dose: 8.0 mg/kg/injection, schedule: Q01DX010 (ip), vehicle: saline 90 % of control | dose: 10.0 mg/kg/injection, schedule: Q04DX003 (ip), vehicle: saline 104 % of control | dose: 16.0 mg/kg/injection, schedule: Q01DX010 (ip), vehicle: saline 113 % of control and 123 % of control | dose: 20.0 mg/kg/injection, schedule: Q04DX003 (ip), vehicle: saline 115 % of control | dose: 40.0 mg/kg/injection, schedule: Q01DX001 (ip), vehicle: saline 111 % of control | dose: 80.0 mg/kg/injection, schedule: Q01DX001 (ip), vehicle: saline 115 % of control | dose: 80.0 mg/kg/injection, schedule: Q04DX003 (ip), vehicle: saline 104 % of control

CC(C)(C)c1ccc(C(c2ccc(C(C)(C)C)cc2)C(Cl)Cl)cc1
inactive: [14] 91 % of control | dose: 200.0 mg/kg/injection, schedule: Q04DX003 (ip), vehicle: Klucel (hydroxypropylcellulose) (HPC) 91 % of control | dose: 400.0 mg/kg/injection, schedule: Q04DX003 (ip), vehicle: Klucel (hydroxypropylcellulose) (HPC) 95 % of control
